Test results taken from ChEMBL document CHEMBL3991943, “Pharmaceutical formulations comprising salts of a protein kinase inhibitor and methods of using same” (2013).

Tests used:
[1] = Solubility of the compound in glycerol; assay type: physicochemical
OVCAR-3 [2] = assay: Induction of DNA damage in human OVCAR3 cells assessed as increase in gamma-H2AX levels at 10 uM in presence of topotecan; assay type: functional
Mus musculus = assay: Toxicity in nude mouse xenografted with human OVCAR3 cells assessed as mortality at 100 to 200 mg/kg, po qd measured on day 5,6,7,20,27 during compound dosing in presence of cisplatin dosed every 7 days for 28 days; assay type: organism-based; conditions: in vivo
OVCAR-3 [3] = assay: Antitumor activity against human OVCAR3 cells xenografted in athymic nude mouse assessed as tumor growth at 100 to 200 mg/kg, po qd administered for 3 days in presence of 5 mg/kg cisplatin dosed every 7 days for 28 days (reference value: 78.04 mm3/day); assay type: functional
A549 [4] = assay: Suppression of carboplatin induced Rad51 expression in human A549 cells at 0.71 uM after 24 hrs by probing blot analysis; assay type: functional; conditions: A549, 24 h
A549 [5] = assay: Suppression of carboplatin induced Rad51 expression in human A549 cells at 3.82 uM after 24 hrs by probing blot analysis; assay type: functional; conditions: A549, 24 h
[6] = Cmax in female rat at 5 mg/kg, iv at 5 mins; assay type: ADME, organism-based; set-up: dose 5 mg/kg, route intravenous; conditions: in vivo
[7] = Tmax in male rat at 5 mg/kg, iv; assay type: ADME, organism-based; conditions: in vivo
[8] = Tmax in rat at 25 mg/kg administered via oral gavage; assay type: ADME, organism-based; conditions: in vivo
Rattus norvegicus [9] = assay: Acute toxicity in Sprague-Dawley rat assessed as clinical abnormalities at 100 to 2000 mg/kg administered as single dose via oral gavage measured 1 to 72 hrs post dose; assay type: organism-based; conditions: in vivo
Canis familiaris [10] = assay: Acute toxicity in dog at 30 to 2000 mg/kg, po administered as single dose capsule measured over 24 hrs; assay type: organism-based, Canis lupus familiaris; conditions: in vivo
Canis familiaris [11] = assay: Acute toxicity in dog assessed as mortality at 30 to 2000 mg/kg, po administered as single dose capsule measured over 24 hrs; assay type: organism-based, Canis lupus familiaris; conditions: in vivo
Rattus norvegicus [12] = assay: Chronic toxicity in male rat assessed as hunched posture at 20 to 200 mg/kg/day, po administered for 28 days; assay type: organism-based; conditions: in vivo, 672 h
Rattus norvegicus [13] = assay: Chronic toxicity in female rat assessed as hunched posture at 6 to 100 mg/kg/day, po administered for 28 days; assay type: organism-based; conditions: in vivo, 672 h
Rattus norvegicus [14] = assay: Chronic toxicity in male rat assessed as soft feces at 20 to 200 mg/kg/day, po administered for 28 days; assay type: organism-based; conditions: in vivo, 672 h
Rattus norvegicus [15] = assay: Chronic toxicity in female rat assessed as sporadic occurrence of hair loss at 6 to 100 mg/kg/day, po administered for 28 days; assay type: organism-based; conditions: in vivo, 672 h
Rattus norvegicus [16] = assay: Chronic toxicity in female rat assessed as weight gain at 6 to 100 mg/kg/day, po administered for 28 days measured during compound dosing; assay type: organism-based; conditions: in vivo, 672 h
Rattus norvegicus [17] = assay: Chronic toxicity in male rat assessed as decrease in food consumption at 200 mg/kg/day, po administered for 28 days; assay type: organism-based; conditions: in vivo, 672 h
Rattus norvegicus [18] = assay: Chronic toxicity in female rat assessed as decrease in food consumption at 60 to 100 mg/kg/day, po administered for 28 days; assay type: organism-based; conditions: in vivo, 672 h
Rattus norvegicus [19] = assay: Chronic toxicity in male rat assessed as decrease in food consumption at 200 mg/kg/day, po administered for 28 days measured after cessation of dosing; assay type: organism-based; conditions: in vivo, 672 h
Rattus norvegicus [20] = assay: Chronic toxicity in male rat assessed as ophthalmologic changes at 200 mg/kg/day, po administered for 28 days; assay type: organism-based; conditions: in vivo, 672 h
Rattus norvegicus [21] = assay: Chronic toxicity in female rat assessed as hematological changes at 60 to 100 mg/kg/day, po administered for 28 days; assay type: organism-based; conditions: in vivo, 672 h
Rattus norvegicus [22] = assay: Chronic toxicity in male rat assessed as decrease in glucose levels at 200 mg/kg/day, po administered for 28 days; assay type: organism-based; conditions: in vivo, 672 h
Rattus norvegicus [23] = assay: Chronic toxicity in male rat assessed as decrease in triglyceride levels at 200 mg/kg/day, po administered for 28 days; assay type: organism-based; conditions: in vivo, 672 h
Rattus norvegicus [24] = assay: Chronic toxicity in male rat assessed as sporadic alterations in organ weight at 200 mg/kg/day, po administered for 28 days; assay type: organism-based; conditions: in vivo, 672 h
Rattus norvegicus [25] = assay: Chronic toxicity in female rat assessed as sporadic alterations in organ weight at 60 to 100 mg/kg/day, po administered for 28 days; assay type: organism-based; conditions: in vivo, 672 h
Rattus norvegicus [26] = assay: Chronic toxicity in male rat assessed as effect on organs at 200 mg/kg/day, po administered for 28 days; assay type: organism-based; conditions: in vivo, 672 h
Rattus norvegicus [27] = assay: Chronic toxicity in female rat assessed as effect on organs at 60 to 100 mg/kg/day, po administered for 28 days; assay type: organism-based; conditions: in vivo, 672 h
[28] = Chronic toxicity in po dosed female rat assessed as no observable adverse effect level administered daily for 28 days; assay type: organism-based; conditions: in vivo
Rattus norvegicus [29] = assay: Chronic toxicity in po dosed male rat assessed as severely toxic dose administered daily for 28 days; assay type: organism-based; conditions: in vivo, 672 h
Canis familiaris [30] = assay: Chronic toxicity in male dog assessed as increase in soft feces/diarrhea at 100 to 300 mg/kg/day, po administered for 28 days; assay type: organism-based, Canis lupus familiaris; conditions: in vivo, 672 h
Canis familiaris [31] = assay: Chronic toxicity in male dog assessed as discolored feces at 30 to 300 mg/kg/day, po administered for 28 days; assay type: organism-based, Canis lupus familiaris; conditions: in vivo, 672 h
Canis familiaris [32] = assay: Chronic toxicity in male dog assessed as mucoid feces at 30 to 300 mg/kg/day, po administered for 28 days; assay type: organism-based, Canis lupus familiaris; conditions: in vivo, 672 h
Canis familiaris [33] = assay: Chronic toxicity in dog assessed as mortality up to 300 mg/kg/day, po administered for 28 days; assay type: organism-based, Canis lupus familiaris; conditions: in vivo, 672 h
Canis familiaris [34] = assay: Chronic toxicity in female dog assessed as increase in emesis at 300 mg/kg/day, po administered for 28 days; assay type: organism-based, Canis lupus familiaris; conditions: in vivo, 672 h
Canis familiaris [35] = assay: Chronic toxicity in female dog assessed as soft feces/diarrhea at 100 to 300 mg/kg/day, po administered for 28 days; assay type: organism-based, Canis lupus familiaris; conditions: in vivo, 672 h
Canis familiaris [36] = assay: Chronic toxicity in dog assessed as effect on food consumption up to 300 mg/kg/day, po administered for 28 days measured during compound dosing; assay type: organism-based, Canis lupus familiaris; conditions: in vivo, 672 h
Canis familiaris [37] = assay: Chronic toxicity in dog assessed as ophthalmic lesions up to 300 mg/kg/day, po administered for 28 days; assay type: organism-based, Canis lupus familiaris; conditions: in vivo, 672 h
Canis familiaris [38] = assay: Chronic toxicity in dog assessed as electrocardiogram changes up to 300 mg/kg/day, po administered for 28 days; assay type: organism-based, Canis lupus familiaris; conditions: in vivo, 672 h
Canis familiaris [39] = assay: Chronic toxicity in dog assessed as hematological changes up to 300 mg/kg/day, po administered for 28 days measured during compound dosing; assay type: organism-based, Canis lupus familiaris; conditions: in vivo, 672 h
Canis familiaris [40] = assay: Chronic toxicity in dog assessed as urinalysis parameters up to 300 mg/kg/day, po administered for 28 days measured during compound dosing; assay type: organism-based, Canis lupus familiaris; conditions: in vivo, 672 h
Canis familiaris [41] = assay: Chronic toxicity in dog assessed as effect on serum troponin 1 levels up to 300 mg/kg/day, po administered for 28 days measured during compound dosing; assay type: organism-based, Canis lupus familiaris; conditions: in vivo, 672 h
Canis familiaris [42] = assay: Chronic toxicity in dog assessed as histopathological alterations in cardiac tissues up to 300 mg/kg/day, po administered for 28 days; assay type: organism-based, Canis lupus familiaris; conditions: in vivo, 672 h

In the case of Cl.S=C(NCc1ccc2c(c1)OCO2)N1CCN(c2ncnc3c2oc2ccccc23)CC1 [AMUVATINIB HYDROCHLORIDE], the solubility [1] was 4000 µg/mL, the Activity (OVCAR-3 [2]) was 113% and the Activity (Mus musculus) was “Toxic”. For the same compound, the Activity (OVCAR-3 [3]) was 10.22 mm3/day, the inhibition at 0.71 µM (A549 [4]) was 26% and the inhibition at 3.82 µM (A549 [5]) was 42%. It also gave a Cmax [6] of 371 ng/mL, a Tmax [7] of 5 min and a Tmax [8] of 30 to 720 min. The Activity (Rattus norvegicus [9]) was “Non-Toxic”, the Activity (Canis familiaris [10]) was “Non-Toxic” and the Activity (Canis familiaris [11]) was “Non-Toxic”. For the same compound, the Activity (Rattus norvegicus [12]) was “Toxic”, the Activity (Rattus norvegicus [13]) was “Toxic” and the Activity (Rattus norvegicus [14]) was “Toxic”. For the same compound, the Activity (Rattus norvegicus [15]) was “Toxic”, the Activity (Rattus norvegicus [16]) was “Toxic” and the Activity (Rattus norvegicus [17]) was “Toxic”. The Activity (Rattus norvegicus [18]) was “Toxic”, the Activity (Rattus norvegicus [19]) was “Non-Toxic” and the Activity (Rattus norvegicus [20]) was “Non-Toxic”. The Activity (Rattus norvegicus [21]) was “Non-Toxic”, the Activity (Rattus norvegicus [22]) was “Toxic” and the Activity (Rattus norvegicus [23]) was “Toxic”. The Activity (Rattus norvegicus [24]) was “Toxic”, the Activity (Rattus norvegicus [25]) was “Toxic” and the Activity (Rattus norvegicus [26]) was “Non-Toxic”. For the same compound, the Activity (Rattus norvegicus [27]) was “Non-Toxic”, the NOAEL at 672 h [28] was 20 mg/kg/day and the Activity (Rattus norvegicus [29]) was 200 mg/kg/day. For the same compound, the Activity (Canis familiaris [30]) was “Toxic”, the Activity (Canis familiaris [31]) was “Toxic” and the Activity (Canis familiaris [32]) was “Toxic”. The Activity (Canis familiaris [33]) was “Non-Toxic”, the Activity (Canis familiaris [34]) was “Toxic” and the Activity (Canis familiaris [35]) was “Toxic”. The Activity (Canis familiaris [36]) was “Non-Toxic”, the Activity (Canis familiaris [37]) was “Non-Toxic” and the Activity (Canis familiaris [38]) was “Non-Toxic”. The Activity (Canis familiaris [39]) was “Non-Toxic”, the Activity (Canis familiaris [40]) was “Non-Toxic” and the Activity (Canis familiaris [41]) was “Non-Toxic”. The Activity (Canis familiaris [42]) was “Non-Toxic”.
